Test results from patent US7235678B2 (priority 2004, dated 2007).
In brackets after ≈: the same amount, converted by molar mass.

How the values were obtained:
[1] = test system: Candida albicans (5 isolates); assay: Antibiotic inhibition assay using disc method, C. albicans isolates; format: cell-based
Benjaminiella poitrasii = assay: microbe, parasite or virus in culture; format: cell-based; conditions: B. poitrassi, disc method; for MIC: 28° C.
[2] = test system: Candida albicans (5 isolates), Benjaminiella poitrasii and Yarrowia lipolytica; assay: Antibiotic inhibition assay using disc method, all fungi tested together; format: cell-based; conditions: for antifungal activity (in words): Candida albicans (five isolates), Benjaminiella poitrasii and Yarrowia lipolytica, compared with cycloheximide; for MIC: all five C. albicans isolates, B. poitrassi and Y. lipolytica
Yarrowia lipolytica = assay: Antibiotic inhibition assay using disc method, Y. lipolytica; format: cell-based; conditions: for MIC: 28° C.
[3] = test system: clinical isolate of C. albicans; conditions: microtitre dilution broth assay; cited from earlier work
[4] = C. albicans, Isolate no. 1, disc method
[5] = C. albicans, Isolate no. 1, disc method, 28° C., 24 hours
[6] = C. albicans, Isolate no. 2, disc method
[7] = C. albicans, Isolate no. 2, disc method, 28° C., 24 hours
[8] = C. albicans, Isolate no. 3, disc method
[9] = C. albicans, Isolate no. 3, disc method, 28° C., 24 hours
[10] = C. albicans, Isolate no. 4, disc method
[11] = C. albicans, Isolate no. 4, disc method, 28° C., 24 hours
[12] = C. albicans, Isolate no. 5, disc method
[13] = C. albicans, Isolate no. 5, disc method, 28° C., 24 hours

Row | Molecule | Inhibition Zone [1, 4] [cm] | MIC [1, 5] [µM] | Inhibition Zone [1, 6] [cm] | MIC [1, 7] [µM] | Inhibition Zone [1, 8] [cm] | MIC [1, 9] [µM] | Inhibition Zone [1, 10] [cm] | MIC [1, 11] [µM] | Inhibition Zone [1, 12] [cm] | MIC [1, 13] [µM] | Inhibition Zone (Benjaminiella poitrasii) [cm] | MIC (Benjaminiella poitrasii; 24 hours) [µM] | antifungal activity (in words) [2] | MIC [2] [µM] | Inhibition Zone (Yarrowia lipolytica) [cm] | MIC (Yarrowia lipolytica; 24 hours) [µM] | also measured
1 | CC(CCC(=O)NCCNCCNC(=O)CCC(C)C1CCC2C3C(O)CC4CC(O)CCC4(C)C3CC(O)C12C)C1CCC2C3C(O)CC4CC(O)CCC4(C)C3CC(O)C12C (stereo not drawn) [Compound (1), N^1,N^3-Diethylenetriaminebis [cholic acid amide]] | 0.8 | 0.01132 (≈ 0.01 µg/mL) | 0.8 | 0.01132 (≈ 0.01 µg/mL) | 0.8 | 0.01132 (≈ 0.01 µg/mL) | 0.8 | 0.01132 (≈ 0.01 µg/mL) | 0.8 | 0.01132 (≈ 0.01 µg/mL) | 0.7 | 0.01132 (≈ 0.01 µg/mL) | very good antifungal activity | 0.01132 (≈ 0.01 µg/mL) | 0.9 | 0.01132 (≈ 0.01 µg/mL) | minimum inhibitory concentration (MIC) ([2]; summary in description, fungi not specified): about 11.30 nM
2 | C[C@@H]1C[C@@H]([C@H](O)CC2CC(=O)NC(=O)C2)C(=O)[C@@H](C)C1 [Cycloheximide, reference compound] | 1.0 | – | 0.9 | – | 0.9 | – | 1.0 | – | 0.8 | – | 1.45 | 0.0712 (≈ 0.02 µg/mL) | – | – | 0.9 | 0.1068 (≈ 0.03 µg/mL) | MIC ([1]; Candida albicans, 24 h, C. albicans, Isolate no. 1, disc method, 28° C.): 0.356 µM (≈ 0.1 µg/mL); MIC ([1]; Candida albicans, 24 h, C. albicans, Isolate no. 2, disc method, 28° C.): 0.539 µM (≈ 0.152 µg/mL); MIC ([1]; Candida albicans, 24 h, C. albicans, Isolate no. 3, disc method, 28° C.): 0.267 µM (≈ 0.0751 µg/mL); MIC ([1]; Candida albicans, 24 h, C. albicans, Isolate no. 4, disc method, 28° C.): 0.534 µM (≈ 0.15 µg/mL); MIC ([1]; Candida albicans, 24 h, C. albicans, Isolate no. 5, disc method, 28° C.): 0.534 µM (≈ 0.15 µg/mL); MIC ([1]; Candida albicans, isolates of C. albicans, range over isolates): 0.25 to 0.5 µM (≈ 0.0703 to 0.141 µg/mL); MIC (Benjaminiella poitrasii; Benjaminiella poitrasii, 24 h): 0.071 µM (≈ 0.02 µg/mL); MIC [3]: greater than 900 nM; MIC (Yarrowia lipolytica; Yarrowia lipolytica, 24 h): 0.106 µM (≈ 0.0298 µg/mL)
3 | N^1,N^3-Diethylenetriaminebis [Compound (2), N^1,N^3-Diethylenetriaminebis [deoxycholic acid amide]] | 0.9 | 0.01175 | 0.7 | 0.01175 | 1.0 | 0.01175 | 0.8 | 0.01175 | 0.9 | 0.01763 | 0.6 | 0.01763 | moderate antifungal activity | 0.01 to 0.025 | 0.8 | 0.0235 | –
